Values joined by “and” are separate entries in the source; they are usually repeats but may differ in a detail not shown here. Equal entries are not always repeated. Where two headings read alike, the source gives them in different places.
Columns and labels:
[1] = molecular target: T1, Kir1.1 (Homo sapiens, UniProt P48048); assay: Whole-cell patch clamp, Kir1.1; type: cell-based; details: mean ± SEM
T1 construct: host or cells: CHO-K1
Procedure: (§1) Plasmids encoding WT human potassium channels Kir1.1, Kir2.1, Kir2.2, Kir4.1, and Kir4.2 were obtained from the Beijing Genomics Institute. All point mutations were constructed using the QuickChange II Site‐Directed Mutagenesis Kit (Stratagene) and subsequently verified by sequencing.
CHO‐K1 cells were maintained in DMEM/F12 growth medium containing 10% fetal bovine serum. Plasmids encoding the target genes (3600 ng) and enhanced green fluorescent protein (400 ng) were cotransfected into cells using Lipofectamine 2000 (Invitrogen) in accordance with the manufacturer's instructions. Cells were seeded onto poly‐d‐lysine (PDL)‐coated glass coverslips 1 h prior to electrophysiological recordings. […]
Whole‐cell patch‐clamp recordings were obtained either in transiently transfected CHO‐K1 cells or in primary cultured astrocytes at room temperature using standard patch‐clamp techniques with an Axopatch‐700B amplifier (Axon Instruments). […] Macroscopic currents generated by expressed potassium channels were recorded under the voltage‐clamp conditions with an internal pipette solution composed of (in mM): 140 KCl, 5 NaCl, 1 CaCl2, 1 MgCl2, 10 HEPES, and 10 EGTA, pH 7.2 adjusted with KOH. […] Astrocytic resting membrane potentials were recorded under current‐clamp conditions (I = 0 pA) using standard internal and external solutions, determined immediately after achieving whole‐cell mode.

[2] = molecular target: T2, Kir4.1 I159A (Homo sapiens, UniProt P78508, I159A); assay: Whole-cell patch clamp, Kir4.1 point mutant I159A; type: cell-based
T2 construct: expressed in transfected cells; host or cells: CHO-K1
T2 sequence (P78508 1-379 I159A): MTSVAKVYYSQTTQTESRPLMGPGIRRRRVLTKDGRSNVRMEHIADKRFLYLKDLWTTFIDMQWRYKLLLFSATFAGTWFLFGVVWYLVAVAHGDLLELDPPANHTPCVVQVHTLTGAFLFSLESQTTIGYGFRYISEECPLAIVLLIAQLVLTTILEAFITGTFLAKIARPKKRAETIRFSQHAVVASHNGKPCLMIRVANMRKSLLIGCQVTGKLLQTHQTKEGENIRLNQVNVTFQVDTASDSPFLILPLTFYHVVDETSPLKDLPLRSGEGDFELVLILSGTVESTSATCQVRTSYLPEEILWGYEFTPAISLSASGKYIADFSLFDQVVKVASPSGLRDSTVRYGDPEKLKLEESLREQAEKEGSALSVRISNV
Procedure: as §1
CHO‐K1 cells were maintained in DMEM/F12 growth medium containing 10% fetal bovine serum. Plasmids encoding the target genes (3600 ng) and enhanced green fluorescent protein (400 ng) were cotransfected into cells using Lipofectamine 2000 (Invitrogen) in accordance with the manufacturer's instructions. Cells were seeded onto poly‐d‐lysine (PDL)‐coated glass coverslips 1 h prior to electrophysiological recordings. All cells were cultured under standard conditions of 5% CO2 at 37 °C.
Whole‐cell patch‐clamp recordings were obtained either in transiently transfected CHO‐K1 cells or in primary cultured astrocytes at room temperature using standard patch‐clamp techniques with an Axopatch‐700B amplifier (Axon Instruments). The signals were filtered at 2 kHz and sampled at 20 kHz using the Digidata 1440A interface (Axon Instruments). The resistance of borosilicate glass pipettes was typically 2–4 MΩ when filled with the internal solution. Drug application was facilitated using a BPS perfusion system (ALA Scientific Instruments). Macroscopic currents generated by expressed potassium channels were recorded under the voltage‐clamp conditions with an internal pipette solution composed of (in mM): 140 KCl, 5 NaCl, 1 CaCl2, 1 MgCl2, 10 HEPES, and 10 EGTA, pH 7.2 adjusted with KOH. The external solution contained (in mM): 140 NaCl, 5 KCl, 2 CaCl2, 1 MgCl2, 10 glucose, and 10 HEPES, pH 7.4 adjusted with NaOH. Currents were elicited with a hyperpolarized voltage at −120 mV from the holding potential of −80 mV, followed by a ramp voltage depolarizing to +50 mV. Astrocytic resting membrane potentials were recorded under current‐clamp conditions (I = 0 pA) using standard internal and external solutions, determined immediately after achieving whole‐cell mode.

[3] = molecular target: T3, 5-HTT (serotonin transporter, SERT) (Homo sapiens, UniProt P31645); assay: 5-HTT functional assay (fluorescent neurotransmitter transporter uptake); type: cell-based; design: SERT inhibition, replicates: unit not given here
T3 construct: expressed in transfected cells
Procedure: The 5‐HTT/DAT functional assays were commissioned by Elsevier Science and Technology Co., Ltd. (Beijing). A fluorescence‐based neurotransmitter assay was conducted using a Neurotransmitter Transporter Uptake Assay Kit (Molecular Devices, R8174), according to the manufacturer's protocol. Flp‐in T‐rex 293 cells transiently expressing the human norepinephrine transporter and HEK293 cells stably expressing the human dopamine or serotonin transporters were seeded in PDL‐coated 384‐well plates and incubated overnight. Subsequently, the medium was removed, and the cells were treated with 16 µL of compounds diluted in assay buffer for 0.5 h at 37 °C. Centanafadine and 0.1% DMSO served as positive and negative controls, respectively. Then, 16 µL of dye mix prepared in 1× Hanks’ Balanced Salt Solution was added to each well and incubated at 37 °C for 1 h. Finally, the data point was acquired via a fluorescence plate reader with excitation at 450 nm and emission at 528 nm.

[4] = Plasma/tissue (kidney) distribution; type: in vivo; details: male, C57BL/6J, mouse, ip, mice (N = 3), 10 mg/kg i.p.
Procedure: Male C57BL/6J mice were used for both blood–brain penetration and plasma/tissue distribution studies, with mice assigned to three groups: 10 mg kg^−1 JX3212 (n = 3), 20 mg kg^−1 JX3212 (n = 3) for blood–brain penetration, and 10 mg kg^−1 JX3212 for plasma/tissue distribution (all administered via intraperitoneal injection), where mice in the blood–brain penetration groups were fasted for 12 h prior to drug administration and 2 h post‐administration; 1 h after drug administration, 0.2 mL of blood was collected from the retro‐orbital/orbital venous plexus into 1.5 mL heparinized tubes, centrifuged at 11 000 rpm for 5 min to obtain plasma (stored at −80 °C for blood–brain penetration groups), while whole brains were excised for blood–brain penetration groups and whole brains plus kidneys (rinsed with physiological saline, blotted dry on filter paper, and accurately weighed) for the plasma/tissue distribution group; plasma samples (20 µL) were mixed with 20 µL internal standard solution and 300 µL acetonitrile for protein precipitation, vortexed for 15 min, centrifuged at 3700 rpm for 15 min at 4 °C, and the supernatant was collected, whereas brain and kidney samples were homogenized in acetonitrile at 10× tissue weight (8000 rpm, 3 × 30 s), sonicated for 5 min, and processed identically to plasma samples; the concentrations of JX3212 in plasma and tissues were quantified by liquid chromatography–tandem mass spectrometry (LC−MS/MS), with lower limits of quantification set to 50 ng mL^−1 for plasma and 50 ng g^−1 for brain tissue.

T3 sequence (P31645 whole entry): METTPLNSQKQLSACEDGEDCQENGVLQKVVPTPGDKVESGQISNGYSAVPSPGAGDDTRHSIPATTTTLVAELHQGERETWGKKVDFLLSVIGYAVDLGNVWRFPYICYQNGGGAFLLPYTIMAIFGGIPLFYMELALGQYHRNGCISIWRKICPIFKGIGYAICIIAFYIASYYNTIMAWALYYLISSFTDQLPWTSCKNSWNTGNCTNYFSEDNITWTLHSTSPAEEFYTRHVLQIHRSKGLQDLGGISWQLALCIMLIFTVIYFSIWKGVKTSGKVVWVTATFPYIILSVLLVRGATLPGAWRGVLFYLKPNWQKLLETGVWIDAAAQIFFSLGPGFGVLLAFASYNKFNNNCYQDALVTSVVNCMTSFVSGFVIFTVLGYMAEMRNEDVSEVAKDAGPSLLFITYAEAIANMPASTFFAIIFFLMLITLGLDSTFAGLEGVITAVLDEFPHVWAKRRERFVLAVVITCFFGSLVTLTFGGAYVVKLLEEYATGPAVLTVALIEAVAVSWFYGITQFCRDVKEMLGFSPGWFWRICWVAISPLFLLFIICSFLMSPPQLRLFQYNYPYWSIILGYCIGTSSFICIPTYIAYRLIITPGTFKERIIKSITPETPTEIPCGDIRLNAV
T1 sequence (P48048 whole entry): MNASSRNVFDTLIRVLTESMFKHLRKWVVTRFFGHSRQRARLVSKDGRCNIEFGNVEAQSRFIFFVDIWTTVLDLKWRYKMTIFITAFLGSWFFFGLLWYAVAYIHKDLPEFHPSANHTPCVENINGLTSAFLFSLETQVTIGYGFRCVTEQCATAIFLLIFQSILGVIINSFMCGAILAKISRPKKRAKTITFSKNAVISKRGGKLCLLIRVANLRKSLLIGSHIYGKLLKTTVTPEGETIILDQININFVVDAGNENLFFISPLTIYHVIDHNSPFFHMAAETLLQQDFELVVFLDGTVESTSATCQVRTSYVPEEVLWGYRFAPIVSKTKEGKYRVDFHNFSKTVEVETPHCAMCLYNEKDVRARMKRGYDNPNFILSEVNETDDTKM

c1ccc2c(c1)oc1ccc(Nc3ccnc(NCCCN4CCOCC4)n3)cc12 [JX3212, N^4-(dibenzo[b,d]furan-2-yl)-N^2-(3-morpholinopropyl)pyrimidine-2,4-diamine]
inhibition at 3 µM [1]: 17.8 ± 8.26%
inhibition at 3 µM ([2]; 3 µM, mean ± SEM, read-out: current inhibition, Kir4.1 I159A): 43.9 ± 6.15%
Mutation: I159A inhibition, single recordings ([2]; JX3212 3 µM (Fig 2D)): 52.8569 and 40.7357 and 46.4245 and 36.569
inhibition at 3 µM ([2]; JX3212 3 µM (Fig 2D), read-out: Mutation: I159A inhibition, single recordings): 42.9%
IC50 [3]: 6.45 µM
SERT inhibition, replicates ([3]; concentration 3): 13.3 and 7.67
SERT inhibition, replicates ([3]; concentration 10): 17.62 and 13.2
SERT inhibition, replicates ([3]; concentration 30): 16.11 and 14.3
SERT inhibition, replicates ([3]; concentration 100): 16.51 and 15.81
SERT inhibition, replicates ([3]; concentration 300): 18.52 and 16.01
SERT inhibition, replicates ([3]; concentration 1000): 49.66 and 31.98
SERT inhibition, replicates ([3]; concentration 3000): 51.87 and 29.87
SERT inhibition, replicates ([3]; concentration 10000): 69.95 and 46.05
SERT inhibition, replicates ([3]; concentration 30000): 87.23 and 70.86
SERT inhibition, replicates ([3]; concentration 100000 (unit not given)): 112.04 and 105.72
concentration at 1 h ([4]; kidney, read-out: Kidney Calculated Concentration): 18400 ± 681 ng/mL
Kp at 1 h ([4]; kidney/plasma): 78.9 ± 2.74
concentration at 1 h ([4]; plasma, read-out: Plasma Calculated Concentration): 234 ± 14.4 ng/mL

Reference: paper PMC12903969, “Discovery of a Novel and Potent Kir4.1 Inhibitor as a Safe and Rapid‐Onset Antidepressant Agent in Mice” (Advanced Science, 2025)
